Measured values from patent publication US20210380548A1, “Fused [1,2,4]Thiadiazine Derivatives Which Act as KAT Inhibitors of the MYST Family” (CTxT Pty Limited, priority 2017, published 2021).
pIC50: −log10 of the molar value.

Experiments:
TIP60-KAT5 = target: T1, TIP60-KAT5 (Homo sapiens, UniProt Q92993); test: Revised Acetyltransferase Biochemical Assay, KAT5; conditions: 10 nM KAT5, 1 μM AcCoA, 100 nM histone H4, 90 min
T1 construct: encoding amino acid residues 2 to 461 (Uniprot Q92993-2) of human KAT5 isoform; made in house; host or cells: E. coli BL21 DE3

MOF-KAT8 [1] = target: T2, MOF-KAT8 (Homo sapiens, UniProt Q9H7Z6); test: Acetyltransferase biochemical assay (AlphaScreen), KAT8; conditions: Table 4 (MOF-KAT8); 0.4 μM Acetyl coenzyme A, histone H4, 20 nM enzyme
T2 sequence (Q9H7Z6 177-447): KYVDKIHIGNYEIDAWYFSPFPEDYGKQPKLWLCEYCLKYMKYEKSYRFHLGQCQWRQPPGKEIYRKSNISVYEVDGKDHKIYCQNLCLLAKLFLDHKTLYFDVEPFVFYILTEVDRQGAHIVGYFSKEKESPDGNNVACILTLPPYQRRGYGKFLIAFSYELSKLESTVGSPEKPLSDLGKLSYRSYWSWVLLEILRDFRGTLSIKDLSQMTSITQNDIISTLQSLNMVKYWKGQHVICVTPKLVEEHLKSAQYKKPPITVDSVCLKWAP

MOZ-KAT6A [2] = target: T3, MOZ-KAT6A (Homo sapiens, UniProt Q92794, A567V); test: Acetyltransferase biochemical assay (AlphaScreen), KAT6A; conditions: Table 2 (MOZ-KAT6A); 10 μM Acetyl coenzyme A, histone H3.1, 5 nM enzyme
T3 construct: encoding amino acid residues 507 to 778 (Uniprot Q92794-1) of human KAT6A; made in house; host or cells: E. coli BL21 DE3

[3] = test system: histone H3K14 acetylation (HBO1 mediated) in U2OS cells; test: Histone H3 Lysine 14 Acetylation Biomarker Assay (96 well, U2OS); assay type: cell-based; conditions: Homo sapiens, 24 h, Table 6, H3K14ac, 24 hours incubation, serum free medium
Protocol: Compounds may be tested for their ability to inhibit acetylation of the histone H3K14 marker (which is HBO1 mediated) in the following assay:
The cell line U2OS was seeded at a density of 12,000 cells per well in 96 well optical quality tissue culture plates in RPMI medium and 10% foetal bovine serum, and allowed to adhere for 24 hours under standard culture conditions (37 degree Celsius, 5% CO2). At the end of this period the cells were washed with serum free medium. Compound dilutions prepared in DMSO were added to the serum free medium, with negative control wells reserved for treatment with DMSO only and positive controls receiving a potent inhibitor compound (e.g. Example 36 in WO2016/198507) at 10 μM concentration. After incubation for 24 hours, the cells were fixed with 3.7% formaldehyde in PBS for 20 minutes at room temperature, washed with phosphate buffer saline containing 0.1% Tween 20 and blocked with Odyssey blocking buffer (LI-COR, Lincoln, Nebr.) containing 0.1% TritonX100. Anti-H3K14ac specific antibody (Cell Signalling Technologies) in Odyssey blocking buffer containing 0.1% Tween 20 was added and incubated for 14 hours at 4 degree Celsius. After washing, a secondary antibody labelled with Alexa647 dye (LifeTechnologies) and Hoechst 33342 (1 μg/mL, SigmaAldrich) were added for 1 hour incubation. Plates were washed and read on a PerkinElmer Phenix high content imaging platform. Using a Columbus image analysis pipeline, individual nuclei were located by Hoechst 33342 stain and the acetylation level was calculated from the Alexa647-related intensity in the same area. The resulting mean intensity per cell was directly converted to percent inhibition relative to controls on the same plate and the data fitted against a four-parameter logistic model to determine the 50% inhibitory concentration (IC50).

MOZ-KAT6A [4] = target: T3, MOZ-KAT6A; test: Revised Acetyltransferase Biochemical Assay, KAT6A; conditions: Table 8 (MOZ-KAT6A), 1 μM Acetyl coenzyme A
MOF-KAT8 [5] = target: T2, MOF-KAT8; test: Revised Acetyltransferase Biochemical Assay, KAT8
QKF-KAT6B = target: T4, QKF-KAT6B (Homo sapiens, UniProt Q8WYB5); test: Revised Acetyltransferase Biochemical Assay, KAT6B; conditions: 8 nM KAT6B, 1 μM AcCoA, 100 nM histone H3.1, 90 min
T4 construct: purchased SignalChem K315-381BG
Text: KAT6B was obtained from SignalChem, catalog ID: K315-381BG

HBO-KAT7 = target: T5, HBO-KAT7 (Homo sapiens, UniProt O95251); test: Acetyltransferase biochemical assay (AlphaScreen), KAT7; conditions: Table 3 (HBO-KAT7); 0.4 μM Acetyl coenzyme A, histone H3.1, 40 nM enzyme
T5 construct: encoding amino acid residues 325 to 611 (Uniprot 095251-1) of human KAT7; made in house; host or cells: E. coli BL21 DE3 RIL

[6] = test system: histone H3K23 acetylation (KATE mediated) in U2OS cells; test: Histone H3 Lysine 23 Acetylation Biomarker Assay (U2OS); assay type: cell-based; conditions: Homo sapiens, 96 well, 24 hours incubation
Method in brief: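 U2OS cells were treated with compound for 24 h, then fixed and immunostained for H3K23ac with Hoechst nuclear counterstain. Per-nucleus Alexa647 intensity was quantified by high-content imaging and converted to % inhibition against DMSO and 10 μM reference-inhibitor controls. IC50 was derived from a four-parameter logistic fit.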

T1 sequence (Q92993 2-461 isoform Q92993-2): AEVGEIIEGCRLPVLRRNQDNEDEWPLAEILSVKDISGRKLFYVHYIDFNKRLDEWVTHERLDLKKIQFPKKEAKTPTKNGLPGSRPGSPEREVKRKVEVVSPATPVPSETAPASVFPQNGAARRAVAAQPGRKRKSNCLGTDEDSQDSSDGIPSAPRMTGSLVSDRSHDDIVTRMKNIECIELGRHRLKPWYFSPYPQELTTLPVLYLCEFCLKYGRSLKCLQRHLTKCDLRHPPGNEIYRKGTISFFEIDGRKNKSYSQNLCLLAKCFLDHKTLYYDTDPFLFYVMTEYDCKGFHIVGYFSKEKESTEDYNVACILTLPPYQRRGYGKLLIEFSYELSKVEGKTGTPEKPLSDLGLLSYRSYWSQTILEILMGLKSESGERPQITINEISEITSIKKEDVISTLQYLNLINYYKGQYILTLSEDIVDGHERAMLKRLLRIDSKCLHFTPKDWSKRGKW
T4 sequence (Q8WYB5 whole entry): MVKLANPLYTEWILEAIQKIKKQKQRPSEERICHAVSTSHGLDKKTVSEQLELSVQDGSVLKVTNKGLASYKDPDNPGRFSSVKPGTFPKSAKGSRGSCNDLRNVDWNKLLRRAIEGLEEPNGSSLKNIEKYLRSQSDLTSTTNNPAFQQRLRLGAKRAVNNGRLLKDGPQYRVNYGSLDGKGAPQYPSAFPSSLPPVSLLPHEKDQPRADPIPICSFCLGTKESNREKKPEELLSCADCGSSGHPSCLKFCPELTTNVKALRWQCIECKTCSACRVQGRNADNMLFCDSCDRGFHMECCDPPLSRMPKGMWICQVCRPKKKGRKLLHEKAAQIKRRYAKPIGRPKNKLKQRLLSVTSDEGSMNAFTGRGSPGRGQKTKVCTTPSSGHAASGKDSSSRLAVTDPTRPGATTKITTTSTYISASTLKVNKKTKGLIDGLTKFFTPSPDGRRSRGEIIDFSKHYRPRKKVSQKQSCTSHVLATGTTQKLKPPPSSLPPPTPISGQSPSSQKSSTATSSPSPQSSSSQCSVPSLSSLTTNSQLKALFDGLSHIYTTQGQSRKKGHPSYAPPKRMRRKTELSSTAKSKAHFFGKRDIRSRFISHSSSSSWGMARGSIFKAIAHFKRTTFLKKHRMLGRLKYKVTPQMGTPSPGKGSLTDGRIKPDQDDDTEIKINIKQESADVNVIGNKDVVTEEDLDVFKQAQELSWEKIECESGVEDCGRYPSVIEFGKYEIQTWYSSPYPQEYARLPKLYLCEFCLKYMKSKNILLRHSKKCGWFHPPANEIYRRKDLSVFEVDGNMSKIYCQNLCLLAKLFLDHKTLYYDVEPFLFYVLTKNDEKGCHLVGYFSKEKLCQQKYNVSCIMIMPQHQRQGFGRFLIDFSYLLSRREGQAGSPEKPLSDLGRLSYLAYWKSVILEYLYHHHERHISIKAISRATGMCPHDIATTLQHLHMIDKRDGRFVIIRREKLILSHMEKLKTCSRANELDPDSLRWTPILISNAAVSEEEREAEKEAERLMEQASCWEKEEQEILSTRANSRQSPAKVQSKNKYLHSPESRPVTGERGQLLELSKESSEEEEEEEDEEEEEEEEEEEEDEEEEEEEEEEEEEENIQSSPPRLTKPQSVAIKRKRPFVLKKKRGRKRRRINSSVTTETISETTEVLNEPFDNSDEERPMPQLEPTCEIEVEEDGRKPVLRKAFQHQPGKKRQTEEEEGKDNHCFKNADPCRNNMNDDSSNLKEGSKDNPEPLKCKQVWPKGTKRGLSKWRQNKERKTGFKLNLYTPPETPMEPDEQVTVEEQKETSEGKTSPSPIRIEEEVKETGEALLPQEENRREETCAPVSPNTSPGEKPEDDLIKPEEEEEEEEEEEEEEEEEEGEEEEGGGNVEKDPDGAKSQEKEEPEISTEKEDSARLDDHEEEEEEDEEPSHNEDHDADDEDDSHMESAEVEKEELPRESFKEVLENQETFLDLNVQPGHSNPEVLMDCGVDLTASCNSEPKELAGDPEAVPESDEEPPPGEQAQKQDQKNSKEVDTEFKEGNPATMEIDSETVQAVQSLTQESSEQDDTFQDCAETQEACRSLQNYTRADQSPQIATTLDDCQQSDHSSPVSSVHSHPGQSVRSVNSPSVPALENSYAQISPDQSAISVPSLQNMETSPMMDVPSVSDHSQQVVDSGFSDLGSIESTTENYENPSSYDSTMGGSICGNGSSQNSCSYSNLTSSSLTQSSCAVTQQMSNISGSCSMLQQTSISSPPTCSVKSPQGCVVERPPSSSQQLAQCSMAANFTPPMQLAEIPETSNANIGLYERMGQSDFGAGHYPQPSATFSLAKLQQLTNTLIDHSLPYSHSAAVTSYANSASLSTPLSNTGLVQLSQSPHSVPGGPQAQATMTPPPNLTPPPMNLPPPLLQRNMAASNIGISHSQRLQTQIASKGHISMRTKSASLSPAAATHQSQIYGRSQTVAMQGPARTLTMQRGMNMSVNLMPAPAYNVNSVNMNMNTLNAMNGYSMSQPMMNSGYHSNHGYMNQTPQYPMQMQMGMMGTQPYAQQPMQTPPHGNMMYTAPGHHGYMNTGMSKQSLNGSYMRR
T3 sequence (Q92794 507-778 A567V limits assumed): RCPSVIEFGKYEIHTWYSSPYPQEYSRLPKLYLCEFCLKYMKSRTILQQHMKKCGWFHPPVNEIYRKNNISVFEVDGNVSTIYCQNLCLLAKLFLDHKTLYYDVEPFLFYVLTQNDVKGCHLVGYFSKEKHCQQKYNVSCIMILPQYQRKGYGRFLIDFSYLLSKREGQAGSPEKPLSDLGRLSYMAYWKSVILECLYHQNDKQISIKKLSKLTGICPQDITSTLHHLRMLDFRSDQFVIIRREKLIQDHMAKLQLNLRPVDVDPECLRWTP
T5 sequence (O95251 with tags, fused parts or gaps): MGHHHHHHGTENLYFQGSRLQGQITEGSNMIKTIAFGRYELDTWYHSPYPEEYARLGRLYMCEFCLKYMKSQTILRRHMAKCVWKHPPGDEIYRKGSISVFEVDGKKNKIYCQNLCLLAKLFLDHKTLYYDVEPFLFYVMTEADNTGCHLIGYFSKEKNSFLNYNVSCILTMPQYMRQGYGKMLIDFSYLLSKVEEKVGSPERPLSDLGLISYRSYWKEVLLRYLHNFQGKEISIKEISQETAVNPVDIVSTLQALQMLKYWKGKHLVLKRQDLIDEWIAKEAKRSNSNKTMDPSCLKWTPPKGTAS

Row | pIC50 (TIP60-KAT5) | pIC50 (MOF-KAT8 [1]) | pIC50 (MOZ-KAT6A [2]) | pIC50 [3] | pIC50 (MOZ-KAT6A [4]) | pIC50 (MOF-KAT8 [5]) | pIC50 (QKF-KAT6B) | pIC50 (HBO-KAT7) | pIC50 [6] | SMILES
1 | 7.17 | 4.84 | 7.62 | 6.50 | 8.30 | 5.34 | 7.22 | 7.20 | 7.19 | O=C(NCC(c1ccccc1)c1ncco1)C1=Nc2ccc(Br)cc2S(=O)(=O)N1 (stereo not shown) [Example 1, 7-Bromo-N-(2-(oxazol-2-yl)-2-phenylethyl)-2H-benzo[e][1,2,4]thiadiazine-3-carboxamide 1,1-dioxide]
2 | 5.39 | 4.05 | 6.49 | 5.09 | 7.19 | 4.00 | 6.23 | 5.58 | 6.75 | O=C(NCC(c1ccccc1)c1ncco1)C1=Nc2ccccc2S(=O)(=O)N1 (stereo not shown) [Example 46, N-(2-(oxazol-2-yl)-2-phenylethyl)-2H-benzo[e][1,2,4]thiadiazine-3-carboxamide 1,1-dioxide]
3 | 7.24 | – | – | 5.79 | 8.00 | 4.62 | 7.41 | 6.26 | 5.85 | O=C(NCCc1ccccc1-n1nccn1)C1=Nc2ccc(I)cc2S(=O)(=O)N1 [Example 60, N-(2-(2H-1,2,3-triazol-2-yl)phenethyl)-7-iodo-2H-benzo[e][1,2,4]thiadiazine-3-carboxamide 1,1-dioxide]
4 | 7.05 | 4.92 | 6.23 | 6.21 | 7.62 | 4.68 | 6.46 | 6.47 | 5.11 | O=C(NCCc1ccccc1OC(F)F)C1=Nc2ccc(I)cc2S(=O)(=O)N1 [Example 91]
